In brackets after ≈: the same amount, converted by molar mass. One block for each molecule: values may come before it. Activity calls are given as the source filed them. No cut-off for these calls is given here.
Columns and labels:
[1] = molecular target: Chromatin remodeling regulator CECR2 (Homo sapiens) (UniProt Q9BXF3); assay: Inhibition of CECR2 (unknown origin) assessed as change in melting temperature at 10 uM by SYPRO Orange-dye based fluorescence thermal shift assay
Peregrin (Homo sapiens) [2] = molecular target: T1, Peregrin (Homo sapiens) (UniProt P55201); assay: Inhibition of Halo-tagged histone H4 binding to C-terminally NanoLuc luciferase conjugated BRPF1 BD (626 to 732 residues) (unknown origin) expressed in human HCT116 cells after 4 to 24 hrs by BRET assay; type: cell-based
T1 sequence (whole entry): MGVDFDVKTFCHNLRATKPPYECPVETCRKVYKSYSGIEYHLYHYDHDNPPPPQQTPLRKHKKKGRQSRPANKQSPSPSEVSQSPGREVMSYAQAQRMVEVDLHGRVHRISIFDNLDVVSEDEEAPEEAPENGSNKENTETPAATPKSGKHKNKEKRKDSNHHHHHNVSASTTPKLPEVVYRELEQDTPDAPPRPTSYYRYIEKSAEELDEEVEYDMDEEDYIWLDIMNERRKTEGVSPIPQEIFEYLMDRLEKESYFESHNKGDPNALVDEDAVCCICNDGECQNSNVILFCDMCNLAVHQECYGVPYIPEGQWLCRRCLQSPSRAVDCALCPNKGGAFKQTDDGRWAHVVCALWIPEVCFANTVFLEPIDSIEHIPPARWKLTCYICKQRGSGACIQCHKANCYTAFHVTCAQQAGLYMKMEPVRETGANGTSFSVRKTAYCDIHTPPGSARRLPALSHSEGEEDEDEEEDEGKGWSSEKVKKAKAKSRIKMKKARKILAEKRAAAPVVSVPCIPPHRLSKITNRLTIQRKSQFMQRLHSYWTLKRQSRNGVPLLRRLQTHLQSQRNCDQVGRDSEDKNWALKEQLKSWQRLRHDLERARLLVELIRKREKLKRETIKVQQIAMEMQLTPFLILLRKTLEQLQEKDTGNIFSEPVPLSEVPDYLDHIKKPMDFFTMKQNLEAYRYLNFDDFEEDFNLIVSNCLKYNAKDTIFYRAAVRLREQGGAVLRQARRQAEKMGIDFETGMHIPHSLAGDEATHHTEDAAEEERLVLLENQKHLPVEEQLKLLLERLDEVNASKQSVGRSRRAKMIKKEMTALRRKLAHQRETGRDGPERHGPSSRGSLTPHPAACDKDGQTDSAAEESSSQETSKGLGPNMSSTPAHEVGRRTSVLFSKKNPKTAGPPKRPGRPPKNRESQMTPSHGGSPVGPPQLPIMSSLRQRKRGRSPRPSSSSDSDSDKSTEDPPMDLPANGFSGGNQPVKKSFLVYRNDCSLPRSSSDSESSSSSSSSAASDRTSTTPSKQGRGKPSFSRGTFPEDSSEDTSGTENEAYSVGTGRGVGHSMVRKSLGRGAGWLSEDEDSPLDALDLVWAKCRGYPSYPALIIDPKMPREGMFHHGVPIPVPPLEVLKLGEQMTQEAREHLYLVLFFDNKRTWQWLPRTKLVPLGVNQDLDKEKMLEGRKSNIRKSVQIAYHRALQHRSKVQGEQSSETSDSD

[3] = molecular target: T2, Bromodomain-containing protein 1 (Homo sapiens, UniProt O95696); assay: (§1) Inhibition of human BRPF2 (563 to 688 residues) expressed in Escherichia coli BL21 (DE3)-R3-pRARE2 preincubated for 15 mins followed by addition of C-terminal biotinylated synthetic K5,12 diacetylated histone H4 (1 to 20 residues) peptide as substrate measured after 1 hr by TR-FRET assay
T2 sequence (O95696 whole entry): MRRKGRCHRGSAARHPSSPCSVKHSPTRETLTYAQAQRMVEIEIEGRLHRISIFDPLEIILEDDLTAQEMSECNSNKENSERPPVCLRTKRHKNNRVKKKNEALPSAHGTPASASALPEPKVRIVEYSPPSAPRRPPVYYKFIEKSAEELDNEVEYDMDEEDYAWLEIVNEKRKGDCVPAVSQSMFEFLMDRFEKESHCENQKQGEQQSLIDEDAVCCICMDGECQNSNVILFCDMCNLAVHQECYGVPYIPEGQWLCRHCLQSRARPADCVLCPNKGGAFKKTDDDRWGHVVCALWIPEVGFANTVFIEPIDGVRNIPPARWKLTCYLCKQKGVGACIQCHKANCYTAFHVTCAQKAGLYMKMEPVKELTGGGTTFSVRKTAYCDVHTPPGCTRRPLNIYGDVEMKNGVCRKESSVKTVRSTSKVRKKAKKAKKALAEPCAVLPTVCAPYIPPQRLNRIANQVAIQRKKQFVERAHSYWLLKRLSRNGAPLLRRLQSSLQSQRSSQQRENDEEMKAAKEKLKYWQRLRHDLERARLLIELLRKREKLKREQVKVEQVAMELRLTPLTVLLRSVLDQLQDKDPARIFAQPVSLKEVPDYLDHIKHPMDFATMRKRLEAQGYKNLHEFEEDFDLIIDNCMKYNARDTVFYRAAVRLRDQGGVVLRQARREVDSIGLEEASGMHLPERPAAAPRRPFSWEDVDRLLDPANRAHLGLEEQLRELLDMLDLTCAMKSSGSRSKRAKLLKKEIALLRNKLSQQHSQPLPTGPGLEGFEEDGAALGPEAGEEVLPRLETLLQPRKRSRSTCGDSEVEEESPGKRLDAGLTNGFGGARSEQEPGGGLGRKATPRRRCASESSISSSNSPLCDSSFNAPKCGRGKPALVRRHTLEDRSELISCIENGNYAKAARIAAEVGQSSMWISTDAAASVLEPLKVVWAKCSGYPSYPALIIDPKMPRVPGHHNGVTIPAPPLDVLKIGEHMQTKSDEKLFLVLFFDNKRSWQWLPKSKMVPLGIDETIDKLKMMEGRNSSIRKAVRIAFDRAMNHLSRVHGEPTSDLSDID

[4] = molecular target: T3, Bromodomain-containing protein 4 (Homo sapiens, UniProt O60885)
[5] = molecular target: T4, Transcription initiation factor TFIID subunit 1-like (Homo sapiens, UniProt Q8IZX4); assay: Stabilization of human GST-tagged TAF1L BD2 (1517 to 1649 residues) expressed in Escherichia coli BL21 (DE3) at 10 uM by SYPRO Orange-dye based fluorescence thermal shift assay
[6] = molecular target: T2, Bromodomain-containing protein 1
[7] = molecular target: Bromodomain-containing protein 1 (Homo sapiens) (UniProt O95696); assay: Binding affinity to human BRPF2 (563 to 688 residues) expressed in Escherichia coli BL21 (DE3) assessed as thermal stability by measuring change in melting temperature at 10 uM by SYPRO Orange-dye based fluorescence assay
[8] = molecular target: T5, Transcription initiation factor TFIID subunit 1 (Homo sapiens, UniProt P21675); assay: as §1, with “GST-tagged TAF1 BD2 (1519” for “BRPF2 (563”, “1651” for “688”, “K5,8,12,16 tetra-acetylated” for “K5,12 diacetylated”
T5 sequence (P21675 whole entry, the tested form may be a part): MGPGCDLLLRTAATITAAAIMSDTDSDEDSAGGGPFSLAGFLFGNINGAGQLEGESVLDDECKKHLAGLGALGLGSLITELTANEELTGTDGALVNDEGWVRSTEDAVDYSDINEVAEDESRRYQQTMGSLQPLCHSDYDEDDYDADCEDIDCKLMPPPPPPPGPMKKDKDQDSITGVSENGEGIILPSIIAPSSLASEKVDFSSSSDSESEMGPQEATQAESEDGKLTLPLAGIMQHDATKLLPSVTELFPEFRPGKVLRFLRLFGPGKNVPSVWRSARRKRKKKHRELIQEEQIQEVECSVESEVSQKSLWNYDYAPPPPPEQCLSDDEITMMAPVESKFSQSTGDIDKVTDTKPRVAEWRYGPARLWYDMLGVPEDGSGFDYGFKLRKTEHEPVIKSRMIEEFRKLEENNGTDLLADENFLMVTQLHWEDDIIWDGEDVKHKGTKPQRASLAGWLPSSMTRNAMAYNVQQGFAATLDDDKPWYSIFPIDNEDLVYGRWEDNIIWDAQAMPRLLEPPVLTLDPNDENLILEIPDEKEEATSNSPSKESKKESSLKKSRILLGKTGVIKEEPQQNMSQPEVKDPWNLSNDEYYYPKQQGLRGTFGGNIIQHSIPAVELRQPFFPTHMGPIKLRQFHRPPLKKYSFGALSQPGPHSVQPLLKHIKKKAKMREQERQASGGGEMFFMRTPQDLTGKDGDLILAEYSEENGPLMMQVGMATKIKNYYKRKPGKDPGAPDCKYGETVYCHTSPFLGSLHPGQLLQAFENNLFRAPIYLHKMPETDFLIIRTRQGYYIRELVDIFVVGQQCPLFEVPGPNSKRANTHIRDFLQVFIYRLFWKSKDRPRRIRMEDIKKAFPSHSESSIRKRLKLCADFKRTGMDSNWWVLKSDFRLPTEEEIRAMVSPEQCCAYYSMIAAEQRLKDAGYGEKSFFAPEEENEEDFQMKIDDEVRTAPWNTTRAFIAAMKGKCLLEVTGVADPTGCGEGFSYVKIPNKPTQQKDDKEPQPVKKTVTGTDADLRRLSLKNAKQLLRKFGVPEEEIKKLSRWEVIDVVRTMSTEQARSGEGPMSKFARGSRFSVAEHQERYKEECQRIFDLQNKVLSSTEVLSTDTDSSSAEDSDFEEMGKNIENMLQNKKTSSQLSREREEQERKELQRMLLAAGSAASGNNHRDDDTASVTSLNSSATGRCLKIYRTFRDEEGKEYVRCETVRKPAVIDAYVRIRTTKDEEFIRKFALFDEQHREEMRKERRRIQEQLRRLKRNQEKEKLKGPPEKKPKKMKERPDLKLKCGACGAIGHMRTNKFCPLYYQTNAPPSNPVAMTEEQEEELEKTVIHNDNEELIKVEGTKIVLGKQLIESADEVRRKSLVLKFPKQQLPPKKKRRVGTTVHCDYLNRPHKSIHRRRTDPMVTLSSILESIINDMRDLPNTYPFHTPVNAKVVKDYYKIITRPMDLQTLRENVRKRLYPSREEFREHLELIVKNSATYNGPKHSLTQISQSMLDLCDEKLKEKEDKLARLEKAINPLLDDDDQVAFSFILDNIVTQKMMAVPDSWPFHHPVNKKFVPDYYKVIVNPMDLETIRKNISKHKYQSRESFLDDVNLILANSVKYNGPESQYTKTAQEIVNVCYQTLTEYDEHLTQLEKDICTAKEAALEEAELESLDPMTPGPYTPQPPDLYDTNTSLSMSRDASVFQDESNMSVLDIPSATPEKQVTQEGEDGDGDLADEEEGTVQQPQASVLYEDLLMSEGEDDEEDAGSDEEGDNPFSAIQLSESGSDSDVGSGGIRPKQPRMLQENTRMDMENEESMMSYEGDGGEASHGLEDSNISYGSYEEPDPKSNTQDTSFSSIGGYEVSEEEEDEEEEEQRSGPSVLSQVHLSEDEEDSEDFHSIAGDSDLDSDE

[9] = molecular target: T3, Bromodomain-containing protein 4; assay: Inhibition of BRD4 BD2 (unknown origin) preincubated for 15 mins followed by addition of C-terminal biotinylated synthetic K5,8,12,16 tetra-acetylated histone H4 (1 to 20 residues) peptide as substrate measured after 1 hr by TR-FRET assay
[10] = molecular target: T5, Transcription initiation factor TFIID subunit 1; assay: Stabilization of human GST-tagged TAF1 BD2 (1519 to 1651 residues) expressed in Escherichia coli BL21 (DE3) assessed as increase in melting temperature at 10 uM by SYPRO Orange-dye based fluorescence thermal shift assay
[11] = molecular target: Histone acetyltransferase p300 (Homo sapiens) (UniProt Q09472); assay: Inhibition of EP300 (unknown origin) assessed as change in melting temperature at 10 uM by SYPRO Orange-dye based fluorescence thermal shift assay
Peregrin = molecular target: T6, Peregrin (Homo sapiens, UniProt P55201); assay: Inhibition of His-tagged BRPF1 (626 to 740 residues) (unknown origin) preincubated for 15 mins followed by addition of C-terminal biotinylated synthetic K5,12 diacetylated histone H4 (1 to 20 residues) peptide as substrate measured after 1 hr by TR-FRET assay
T6 sequence (P55201 whole entry): T1 sequence (whole entry)

[12] = Aqueous solubility of the compound in DMSO at pH 6.5 after 24 hrs by HPLC-MS/MS analysis; type: physicochemical; settings: pH 6.5, 24 h
Homo sapiens = species: Homo sapiens; assay: Selectivity ratio of IC50 for His-tagged BRPF1 (626 to 740 residues) (unknown origin) to IC50 for human BRPF2 (563 to 688 residues) expressed in Escherichia coli BL21 (DE3) by TR-FRET assay
[13] = molecular target: Bromodomain adjacent to zinc finger domain protein 1A (Homo sapiens) (UniProt Q9NRL2); assay: Inhibition of BAZ1A (unknown origin) assessed as change in melting temperature at 10 uM by SYPRO Orange-dye based fluorescence thermal shift assay
[14] = molecular target: T4, Transcription initiation factor TFIID subunit 1-like; assay: Inhibition of TAF1L BD2 (unknown origin) assessed as change in melting temperature at 10 uM by SYPRO Orange-dye based fluorescence thermal shift assay
[15] = molecular target: Bromodomain adjacent to zinc finger domain protein 2B (Homo sapiens) (UniProt Q9UIF8); assay: Inhibition of BAZ2B (unknown origin) assessed as change in melting temperature at 10 uM by SYPRO Orange-dye based fluorescence thermal shift assay
Peregrin (Homo sapiens) [16] = molecular target: T1, Peregrin (Homo sapiens); assay: Inhibition of BRPF1B (unknown origin) assessed as change in melting temperature at 10 uM by SYPRO Orange-dye based fluorescence thermal shift assay
[17] = molecular target: Tyrosine-protein kinase BAZ1B (Homo sapiens) (UniProt Q9UIG0); assay: Inhibition of BAZ1B (unknown origin) assessed as change in melting temperature at 10 uM by SYPRO Orange-dye based fluorescence thermal shift assay
[18] = molecular target: CREB-binding protein (Homo sapiens) (UniProt Q92793); assay: Inhibition of human CREBBP (R1081 to G1197 residues) expressed in bacterial expression system at 100 nM by BROMOScan assay
[19] = molecular target: Bromodomain and WD repeat-containing protein 1 (Homo sapiens) (UniProt Q9NSI6); assay: Inhibition of WDR9 BD2 (unknown origin) assessed as change in melting temperature at 10 uM by SYPRO Orange-dye based fluorescence thermal shift assay
[20] = molecular target: Histone-lysine N-methyltransferase ASH1L (Homo sapiens) (UniProt Q9NR48); assay: Inhibition of ASH1L (unknown origin) assessed as change in melting temperature at 10 uM by SYPRO Orange-dye based fluorescence thermal shift assay
[21] = molecular target: T3, Bromodomain-containing protein 4; assay: Inhibition of BRD4 BD2 (unknown origin) assessed as change in melting temperature at 10 uM by SYPRO Orange-dye based fluorescence thermal shift assay
[22] = molecular target: Bromodomain-containing protein 3 (Homo sapiens) (UniProt Q15059); assay: Inhibition of BRD3 BD2 (unknown origin) assessed as change in melting temperature at 10 uM by SYPRO Orange-dye based fluorescence thermal shift assay
Chain of Bromodomain-containing protein 3 (Homo sapiens) (Q15059 2-726 limits assumed): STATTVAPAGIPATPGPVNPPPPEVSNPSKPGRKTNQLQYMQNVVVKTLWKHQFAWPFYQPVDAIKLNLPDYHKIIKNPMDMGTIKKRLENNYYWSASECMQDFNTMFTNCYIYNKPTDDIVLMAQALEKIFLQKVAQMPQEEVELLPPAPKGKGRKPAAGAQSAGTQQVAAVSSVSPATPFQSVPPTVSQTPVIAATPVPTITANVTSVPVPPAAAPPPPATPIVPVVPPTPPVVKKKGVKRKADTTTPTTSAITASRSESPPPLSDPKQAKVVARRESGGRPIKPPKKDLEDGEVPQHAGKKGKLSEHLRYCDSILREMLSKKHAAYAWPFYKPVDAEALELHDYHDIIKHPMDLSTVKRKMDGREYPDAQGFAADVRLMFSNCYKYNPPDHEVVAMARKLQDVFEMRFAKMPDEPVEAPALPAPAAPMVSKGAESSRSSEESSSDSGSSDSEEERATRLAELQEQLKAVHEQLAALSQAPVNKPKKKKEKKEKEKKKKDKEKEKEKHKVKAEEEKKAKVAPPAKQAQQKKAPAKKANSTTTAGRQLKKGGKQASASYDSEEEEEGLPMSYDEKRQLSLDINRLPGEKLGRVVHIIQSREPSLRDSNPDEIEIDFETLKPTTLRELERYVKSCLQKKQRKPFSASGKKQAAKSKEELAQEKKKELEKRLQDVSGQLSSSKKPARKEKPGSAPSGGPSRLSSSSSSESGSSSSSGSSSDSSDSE

[23] = molecular target: PH-interacting protein (Homo sapiens) (UniProt Q8WWQ0); assay: Inhibition of PHIP BD2 (unknown origin) assessed as change in melting temperature at 10 uM by SYPRO Orange-dye based fluorescence thermal shift assay
[24] = molecular target: Bromodomain-containing protein 2 (Homo sapiens) (UniProt P25440); assay: Inhibition of BRD2 BD1 (unknown origin) assessed as change in melting temperature at 10 uM by SYPRO Orange-dye based fluorescence thermal shift assay
[25] = molecular target: Transcription intermediary factor 1-alpha (Homo sapiens) (UniProt O15164); assay: Inhibition of TIF1-phd-bromo (unknown origin) assessed as change in melting temperature at 10 uM by SYPRO Orange-dye based fluorescence thermal shift assay
Chain of Transcription intermediary factor 1-alpha (Homo sapiens) (O15164 whole entry, the tested form may be a part): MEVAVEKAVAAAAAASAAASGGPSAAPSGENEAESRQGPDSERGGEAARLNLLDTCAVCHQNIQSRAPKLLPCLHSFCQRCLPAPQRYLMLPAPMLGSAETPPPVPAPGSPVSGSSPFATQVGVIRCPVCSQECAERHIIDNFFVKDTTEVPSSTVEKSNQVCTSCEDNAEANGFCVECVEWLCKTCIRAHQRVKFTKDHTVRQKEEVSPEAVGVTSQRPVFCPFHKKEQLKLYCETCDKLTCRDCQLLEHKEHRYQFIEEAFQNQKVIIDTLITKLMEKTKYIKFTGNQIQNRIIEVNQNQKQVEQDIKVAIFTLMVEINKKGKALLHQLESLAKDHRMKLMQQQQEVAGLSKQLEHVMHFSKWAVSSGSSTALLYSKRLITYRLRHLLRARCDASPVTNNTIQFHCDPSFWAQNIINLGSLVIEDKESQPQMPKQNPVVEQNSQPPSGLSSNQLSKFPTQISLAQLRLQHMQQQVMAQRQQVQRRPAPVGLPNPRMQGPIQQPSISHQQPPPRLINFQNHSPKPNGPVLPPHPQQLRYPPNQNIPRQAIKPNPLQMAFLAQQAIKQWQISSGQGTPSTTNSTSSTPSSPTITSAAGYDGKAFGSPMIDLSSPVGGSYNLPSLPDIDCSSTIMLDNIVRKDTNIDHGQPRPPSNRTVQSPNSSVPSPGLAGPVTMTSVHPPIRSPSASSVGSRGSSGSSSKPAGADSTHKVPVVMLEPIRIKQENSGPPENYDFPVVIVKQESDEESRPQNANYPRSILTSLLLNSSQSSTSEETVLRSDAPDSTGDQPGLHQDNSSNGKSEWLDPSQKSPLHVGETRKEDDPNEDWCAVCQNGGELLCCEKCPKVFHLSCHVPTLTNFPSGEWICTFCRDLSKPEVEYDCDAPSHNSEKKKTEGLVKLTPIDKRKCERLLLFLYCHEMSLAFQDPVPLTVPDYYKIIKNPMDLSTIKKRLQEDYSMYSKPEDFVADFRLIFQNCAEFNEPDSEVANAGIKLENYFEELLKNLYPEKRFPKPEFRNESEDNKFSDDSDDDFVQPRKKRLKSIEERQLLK

[26] = molecular target: Bromodomain adjacent to zinc finger domain protein 2A (Homo sapiens) (UniProt Q9UIF9); assay: Inhibition of BAZ2A (unknown origin) assessed as change in melting temperature at 10 uM by SYPRO Orange-dye based fluorescence thermal shift assay
Peregrin (Homo sapiens) [27] = molecular target: T1, Peregrin (Homo sapiens); assay: Inhibition of BRPF1A (unknown origin) assessed as change in melting temperature at 10 uM by SYPRO Orange-dye based fluorescence thermal shift assay
[28] = molecular target: Nucleosome-remodeling factor subunit BPTF (Homo sapiens) (UniProt Q12830); assay: Inhibition of FALZ (unknown origin) assessed as change in melting temperature at 10 uM by SYPRO Orange-dye based fluorescence thermal shift assay
[29] = molecular target: CREB-binding protein (Homo sapiens) (UniProt Q92793); assay: Inhibition of His-tagged CREBBP (unknown origin) at 100 nM using biotin-acetylated histone H4 peptide as substrate after 30 mins by AlphaScreen assay relative to control
[30] = molecular target: ATPase family AAA domain-containing protein 2B (Homo sapiens) (UniProt Q9ULI0); assay: Inhibition of ATAD2B (unknown origin) assessed as change in melting temperature at 10 uM by SYPRO Orange-dye based fluorescence thermal shift assay

Chain of Chromatin remodeling regulator CECR2 (Homo sapiens) (Q9BXF3 whole entry, looked up, the tested form may be a part): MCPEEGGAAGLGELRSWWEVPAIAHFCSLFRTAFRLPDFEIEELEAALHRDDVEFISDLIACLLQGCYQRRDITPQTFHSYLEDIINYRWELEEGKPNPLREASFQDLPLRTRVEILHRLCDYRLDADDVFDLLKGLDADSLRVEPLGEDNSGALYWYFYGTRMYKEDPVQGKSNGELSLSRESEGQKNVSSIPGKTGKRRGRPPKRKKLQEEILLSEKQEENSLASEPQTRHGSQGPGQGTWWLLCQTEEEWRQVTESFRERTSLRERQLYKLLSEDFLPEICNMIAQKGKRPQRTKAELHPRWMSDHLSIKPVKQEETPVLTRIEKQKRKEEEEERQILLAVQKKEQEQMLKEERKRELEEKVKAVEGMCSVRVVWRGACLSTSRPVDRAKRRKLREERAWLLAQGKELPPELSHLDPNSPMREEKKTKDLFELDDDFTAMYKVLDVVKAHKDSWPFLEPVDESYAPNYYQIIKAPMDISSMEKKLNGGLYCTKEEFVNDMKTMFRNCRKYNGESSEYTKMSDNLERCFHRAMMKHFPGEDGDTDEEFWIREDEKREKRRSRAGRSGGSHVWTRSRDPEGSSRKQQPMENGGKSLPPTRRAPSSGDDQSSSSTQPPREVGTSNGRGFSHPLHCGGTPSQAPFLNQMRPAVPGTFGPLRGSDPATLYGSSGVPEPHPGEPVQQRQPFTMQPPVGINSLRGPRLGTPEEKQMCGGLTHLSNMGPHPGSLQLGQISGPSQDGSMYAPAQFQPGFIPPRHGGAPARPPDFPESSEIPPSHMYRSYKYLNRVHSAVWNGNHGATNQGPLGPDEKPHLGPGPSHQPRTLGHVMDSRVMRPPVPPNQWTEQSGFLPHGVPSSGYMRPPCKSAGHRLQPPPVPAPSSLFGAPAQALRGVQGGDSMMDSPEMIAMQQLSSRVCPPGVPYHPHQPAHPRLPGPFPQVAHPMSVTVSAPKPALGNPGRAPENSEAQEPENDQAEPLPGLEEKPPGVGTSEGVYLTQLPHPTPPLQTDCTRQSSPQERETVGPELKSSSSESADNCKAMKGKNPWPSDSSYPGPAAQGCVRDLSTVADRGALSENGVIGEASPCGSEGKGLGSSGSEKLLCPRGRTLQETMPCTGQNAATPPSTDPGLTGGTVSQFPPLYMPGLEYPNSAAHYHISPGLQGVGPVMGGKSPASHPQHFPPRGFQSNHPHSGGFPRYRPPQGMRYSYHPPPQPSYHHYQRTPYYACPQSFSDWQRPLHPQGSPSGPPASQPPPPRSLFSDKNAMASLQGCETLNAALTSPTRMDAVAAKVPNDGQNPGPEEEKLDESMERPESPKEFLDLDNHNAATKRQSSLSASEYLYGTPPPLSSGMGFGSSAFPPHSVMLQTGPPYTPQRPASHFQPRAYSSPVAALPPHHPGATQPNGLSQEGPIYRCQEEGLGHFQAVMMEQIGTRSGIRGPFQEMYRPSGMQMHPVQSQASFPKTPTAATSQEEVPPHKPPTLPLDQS

Activity [1]: inactive | inhibition (Peregrin (Homo sapiens) [2]): inactive | IC50 [3]: 37 nM | IC50 [4]: > 10100 nM | Activity [5]: inactive | IC50 [6]: 675 nM | deltaTm [7]: 6.2 K | IC50 [8]: 8 nM | IC50 [9]: 15000 to 20000 nM | Activity [10]: inactive | Activity [11]: inactive | IC50 (Peregrin): 547 nM | solubility [12]: Insoluble
Compound: Cc1cc2c(cc1N1C(=O)c3cccc4c(Cl)ccc(c34)C1=O)n(C)c(=O)n2C

IC50 [3]: 121 nM | Ratio IC50 (Homo sapiens): 118 | IC50 [4]: > 13900 nM | IC50 [8]: 3 nM | IC50 [9]: > 15000 nM | IC50 (Peregrin): 14200 nM | solubility [12]: 0.1 µg/mL (≈ 0.233 µM)
Compound: CCCNc1ccc2c3c(cccc13)C(=O)N(c1cc3c(cc1C)n(C)c(=O)n3C)C2=O

deltaTm [1]: 3.2 K | deltaTm [13]: 0.8 K | deltaTm [14]: 4.8 K | deltaTm [15]: 1.6 K | deltaTm (Peregrin (Homo sapiens) [16]): 2.4 K | deltaTm [17]: 0.6 K | inhibition [18]: 30% | deltaTm [19]: 0.7 K | deltaTm [20]: 1.5 K | deltaTm [21]: 3.4 K | deltaTm [22]: 1.7 K | deltaTm [23]: 1.1 K | deltaTm [24]: 3.2 K | deltaTm [25]: 0.6 K | deltaTm [26]: 1.5 K | deltaTm (Peregrin (Homo sapiens) [27]): 0.8 K | deltaTm [28]: 2.8 K | inhibition [29]: 41% | deltaTm [30]: 1.5 K
Compound: Cc1cc2c(cc1N1C(=O)c3cccc4c(CCCO)ccc(c34)C1=O)n(C)c(=O)n2C

Reference: ChEMBL document CHEMBL4049437, “Benzoisoquinolinediones as Potent and Selective Inhibitors of BRPF2 and TAF1/TAF1L Bromodomains” (J Med Chem, 2017)
